What is called pKi is the Ki on a negative log10 scale, so that one unit is a factor of ten. Read a low pKi as a high Ki. As a reminder, the pIC50 is the IC50 on a negative log10 scale, so that one unit is a factor of ten.

Structures are written as SMILES. pIC50, pKi: −log10 of the molar value.

Results on two molecules are retold here after ChEMBL document CHEMBL1127177, “(E) and (Z)5-fluoro olefin carbocyclic nucleosides: effect of olefin geometry on inhibition of s-adenosyl-l-homocysteine hydrolase” (Bioorg Med Chem Lett, 1993).

The target in one experiment is T1, Adenosylhomocysteinase (Rattus norvegicus, UniProt P10760).
T1 sequence (P10760 whole entry): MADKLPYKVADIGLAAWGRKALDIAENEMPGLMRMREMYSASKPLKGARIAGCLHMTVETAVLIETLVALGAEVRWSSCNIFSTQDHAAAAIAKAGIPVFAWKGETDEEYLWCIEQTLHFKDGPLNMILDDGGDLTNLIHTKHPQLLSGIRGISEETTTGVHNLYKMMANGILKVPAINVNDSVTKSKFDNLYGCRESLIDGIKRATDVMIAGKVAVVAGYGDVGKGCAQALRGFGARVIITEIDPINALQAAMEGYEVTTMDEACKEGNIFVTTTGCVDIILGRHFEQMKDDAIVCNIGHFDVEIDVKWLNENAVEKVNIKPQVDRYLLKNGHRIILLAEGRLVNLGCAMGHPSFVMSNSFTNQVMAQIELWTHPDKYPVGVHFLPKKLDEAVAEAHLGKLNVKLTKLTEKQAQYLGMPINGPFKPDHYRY
Put plainly: Tested for binding affinity of compound against S-adenosyl-L-homocysteine hydrolase.

The subject of experiment [1] is T-cell. In words: Inhibition of T cell proliferation was determined using murine splenic mononuclear cells. The note with it: Mus musculus. The experiment is classed as functional, cell-based.
For experiment [2], the system named is T-cell. Put plainly: Tested for inhibition of T cell proliferation. In kind it is functional, cell-based. The note with it: Mus musculus.
Experiment [3] has as its target T2, Adenosylhomocysteinase (Rattus norvegicus) (UniProt P10760).
T2 sequence (whole entry): T1 sequence (P10760 whole entry)
Description: Tested for rate constant for inactivation of S-adenosyl-L-homocysteine hydrolase from rat

In the case of `Nc1ncnc2c1ncn2C1C/C(=C/F)C(O)C1O` (stereo not given), the negative-log Ki (pKi) at Adenosylhomocysteinase is 5.96. Moreover, the negative-log IC50 (pIC50) in the experiment on T-cell [1] is 5.17.
The molecule `Nc1ncnc2c1ncn2C1C/C(=C\F)C(O)C1O` (stereo not given) gave a pKi at Adenosylhomocysteinase of 5.16. In addition, the pIC50 in the experiment with T-cell [2] was 6.10. Besides, the K inact in experiment [3] is 0.18 min⁻¹.
